Consider eight molecules from patent US7521528B2, “Conformationally constrained parathyroid hormone (PTH) analogs with lactam bridges” (The General Hospital Corporation, priority 2003, dated 2009).

The target in test [1] is T1, recombinant full-length P1R (Homo sapiens, UniProt Q03431).
T1 construct: expressed in transfected cells
T1 sequence (Q03431 27-593): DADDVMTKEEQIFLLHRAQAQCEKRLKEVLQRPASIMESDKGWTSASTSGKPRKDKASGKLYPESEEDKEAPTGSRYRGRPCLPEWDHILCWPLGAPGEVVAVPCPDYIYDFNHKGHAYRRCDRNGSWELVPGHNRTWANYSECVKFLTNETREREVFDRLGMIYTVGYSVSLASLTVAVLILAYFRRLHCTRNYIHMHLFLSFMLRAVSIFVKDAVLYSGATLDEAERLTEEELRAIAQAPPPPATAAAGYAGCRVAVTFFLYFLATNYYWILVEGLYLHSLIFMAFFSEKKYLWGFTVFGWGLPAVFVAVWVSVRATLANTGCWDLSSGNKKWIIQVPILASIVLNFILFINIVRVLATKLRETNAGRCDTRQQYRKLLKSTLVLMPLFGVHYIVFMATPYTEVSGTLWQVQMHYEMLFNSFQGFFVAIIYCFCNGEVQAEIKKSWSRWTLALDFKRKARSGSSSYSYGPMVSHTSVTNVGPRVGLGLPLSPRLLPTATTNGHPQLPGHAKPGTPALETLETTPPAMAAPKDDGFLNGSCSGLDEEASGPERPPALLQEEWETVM
In words: cAMP stimulation in HKRK-B28 cells. The format is cell-based. The settings on record: for Emax: percent of maximum response of PTH(1-14), Table 3. On the procedure: Cell Culture. The cell line HKRK-B28 (Takasu, H., et al., J. Bone Miner. Res. 14:11-20 (1999)) was derived from the porcine kidney cell line, LLC-PK1 by stable transfection with plasmid DNA encoding the full-length P1R and expresses ˜280,000 receptors per cell. These cells, as well as COS-7 cells and SaOS-2-B10 cells, were cultured at […] in T-75 flasks ([…]) in Dulbecco's modified Eagle's medium (DMEM) supplemented with fetal bovine serum (10%), penicillin G (20 units/ml), streptomycin sulfate (20 μg/ml) and amphotericin B (0.05 μg/ml) in a humidified atmosphere containing 5% CO2. Stock solutions of EGTA/trypsin and antibiotics were from GIBCO; fetal bovine serum was from Hyclone Laboratories (Logan, Utah). COS-7 cells sub-cultured in 24-well plates were transfected with plasmid DNA (200 ng per well) encoding the wild-type human P1R or truncated human P1R deleted for residues (24-181) (Shimizu, M., et al., J. Biol. Chem. 275:21836-21843 (2000)) that was purified by cesium chloride/ethidium bromide density gradient centrifugation, and FuGENE 6 transfection reagent (Roche Indianapolis Ind.) according to the manufacturer's recommended procedure. All cells, in 24-well plates, were treated with fresh media and shifted to 33° C. for 12 to 24 h prior to assay.
(§1) cAMP Stimulation. Stimulation of cells with peptide analogs was performed in 24-well plates. Cells were rinsed with 0.5 mL of binding buffer (50 mM Tris-HCl, 100 mM NaCl, 5 mM KCl, 2 mM CaCl2, 5% heat-inactivated horse serum, 0.5% fetal bovine serum, adjusted to pH 7.5 with HCl) and treated with 200 μL of cAMP assay buffer (Delbecco's modified Eagle's medium containing 2 mM 3-isobutyl-1-methylxanthine, 1 mg/mL bovine serum albumin, 35 mM Hepes-NaOH, pH 7.4) and 100 μL of binding buffer containing varying amounts of peptide analog (final volume=300 μL). The medium was removed after incubation for 30 to 60 minutes at room temperature, and the cells were frozen on dry ice, lysed with 0.5 mL 50 mM HCl, and refrozen ([…]). The cAMP content of the diluted lysate was determined by radioimmunoassay. The EC50 response values were calculated using nonlinear regression (see below).
(§2) Data Calculation. Calculations were performed using Microsoft® Excel. Nonlinear regression analyses of binding and cAMP dose-response data were performed using the four-parameter equation: yp=Min+[(Max−Min)/(1+(IC50/x)^slope)]. The Excel Solver function was utilized for parameter optimization, as described previously (Carter, P. H., et al., Endocrinology 140: 4972-4981 (1999); Bowen, W. P., and Jerman, J. C., Trends in Pharmacol. Sci. 16: 413-417 (1995)). Differences between paired data sets were statistically evaluated using a one-tailed Student's t-test, assuming unequal variances for the two sets.
The effects of installing a direct covalent linkage between the side chains of the residues at positions 6 and 10 on PTH analog function were also assessed. To do this, paired Glu^6/Lys^10 or Lys^6/Glu^10 substitutions were introduced into an otherwise non-constrained PTH(1-14) analog scaffold AlaValAlaGluIleGln LeuMetHisGlnHarAlaLysTrp-amide (SEQ. ID. NO. 11) and formed an amide bond between the carboxylate side chain group of the introduced glutamate residue and the amino side chain group of the introduced lysine residue. For controls, a portion of each Glu/Lys- or Lys/Glu-substituted PTH(1-14) analog was preserved in the non-bridged form. The four peptides: [Glu^6, Lys^10]PTH(1-14)(linear)(SEQ. ID. NO. 24), [(Glu^6,Lys^10)lac.]PTH(1-14) cyclized via a 6-10 lactam bridge)(SEQ. ID. NO. 3), [Lys^6, Glu^10]PTH(1-14)(SEQ. ID. NO. 25), and [(Lys^6, Glu^10)lac.]PTH(1-14)(SEQ. ID. NO. 26) were first compared at a single dose of 10 μM for the capacity to stimulate cAMP formulation in HKRK-B28 cells, an LLC-PK1-derived cell line that expresses the recombinant full-length P1R at a moderate level (˜280,000 receptors per cell). […]

The target in a further test is T2, P1R-DelNt (Homo sapiens, UniProt Q03431).
T2 construct: expressed in transfected cells
T2 sequence (Q03431 with tags, fused parts or gaps limits assumed): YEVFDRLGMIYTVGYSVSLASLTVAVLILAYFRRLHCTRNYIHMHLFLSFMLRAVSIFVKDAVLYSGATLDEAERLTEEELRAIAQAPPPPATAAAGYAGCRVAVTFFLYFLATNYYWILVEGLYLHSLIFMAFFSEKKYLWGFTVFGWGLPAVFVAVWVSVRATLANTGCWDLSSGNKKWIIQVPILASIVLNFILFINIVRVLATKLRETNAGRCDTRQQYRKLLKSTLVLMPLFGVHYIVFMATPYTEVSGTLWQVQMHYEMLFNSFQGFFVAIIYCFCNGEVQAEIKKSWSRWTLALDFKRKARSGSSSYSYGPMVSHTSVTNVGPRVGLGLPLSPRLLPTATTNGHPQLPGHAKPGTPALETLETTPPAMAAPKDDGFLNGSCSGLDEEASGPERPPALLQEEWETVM
Nature of the test: cAMP stimulation in LdelNt-2 cells. The settings on record: for EC50: cAMP accumulation; for Emax: percent of maximum response of PTH(1-14). The format is cell-based. On the procedure: as §1, §2
The two-domain hypothesis of the PTH-P1R interaction mechanism predicts that the effects of the substitutions at positions 6 and 10 observed with the above PTH(1-11) analogs involve interactions (direct or indirect) that occur within the juxtamembrane region of the receptor. To test this hypothesis, P1R-DelNt was utilized. P1R-DeNt is a P1R construct that is deleted for most of the N domain yet which retains nearly full capacity to be expressed on the cell surface and to stimulate cAMP formation in response to N-terminal PTH analogs, and an LLC-PK1-derived cell line was herein established, LdelNt-2, which stably expresses P1R-DelNt.

The structures appear in SMILES notation. “Also recorded” adds a separate entry of the source. Positions of bridges follow the written chain, without caps; N, C: chain ends. Non-standard residues stand in square brackets, D forms with d. Residues, ends and D or L forms follow the SMILES beside them. hArg = N=C(N)NCCCC[C@H](N)C(=O)O; Aib = CC(C)(N)C(=O)O

As a reminder, the Emax is the maximal effect, on the per cent scale that the assay sets. On to `CC[C@H](C)[C@H](NC(=O)[C@H](CCC(=O)O)NC(=O)[C@H](C)NC(=O)[C@@H](NC(=O)[C@H](C)N)C(C)C)C(=O)N[C@@H](CCC(N)=O)C(=O)N[C@@H](CC(C)C)C(=O)N[C@@H](CCSC)C(=O)N[C@@H](Cc1c[nH]cn1)C(=O)N[C@@H](CCC(N)=O)C(=O)N[C@@H](CCCCNC(=N)N)C(=O)N[C@@H](C)C(=O)N[C@@H](CCCCN)C(=O)N[C@@H](Cc1c[nH]c2ccccc12)C(N)=O` [PTH(1-14) (SEQ. ID. NO. 11), [Ala^1,3,12,Gln^10,Har^11,Trp^14]PTH(1-14)amide] (H-AVAEIQLMHQ[hArg]AKW-NH2), for which, in test [1] (n=3), the “maximum cAMP response observed” value is 359±52 picomoles of cAMP per well. The Emax in test [1] turned out to be 100 ± 2%.
For `CC[C@H](C)[C@H](NC(=O)[C@H](CCC(=O)O)NC(=O)[C@H](C)NC(=O)[C@@H](NC(=O)[C@H](C)N)C(C)C)C(=O)N[C@@H](CCC(=O)O)C(=O)N[C@@H](CC(C)C)C(=O)N[C@@H](CCSC)C(=O)N[C@@H](Cc1c[nH]cn1)C(=O)N[C@@H](CCCCN)C(=O)N[C@@H](CCCCNC(=N)N)C(=O)N[C@@H](C)C(=O)N[C@@H](CCCCN)C(=O)N[C@@H](Cc1c[nH]c2ccccc12)C(N)=O` [[Glu^6, Lys^10]PTH(1-14)] (H-AVAEIELMHK[hArg]AKW-NH2), the maximal response (Emax) in test [1] was found to be 52 ± 3%.
A word on the EC50: it is the concentration giving half of the maximal effect. Consider `CC[C@H](C)[C@H](NC(=O)[C@H](CCC(=O)O)NC(=O)C(C)(C)NC(=O)[C@@H](NC(=O)C(C)(C)N)C(C)C)C(=O)N[C@@H](CCC(N)=O)C(=O)N[C@@H](CC(C)C)C(=O)N[C@@H](CCSC)C(=O)N[C@@H](Cc1c[nH]cn1)C(=O)N[C@@H](C)C(=O)N[C@@H](CCCCNC(=N)N)C(=O)N[C@@H](C)C(=O)N[C@@H](CCCCN)C(=O)N[C@@H](Cc1c[nH]c2ccccc12)C(N)=O` [[Aib^1,3, Ala^10]PTH(1-14)] (H-[Aib]V[Aib]EIQLMHA[hArg]AKW-NH2), for which, at P1R-DelNt, the “potency weaker than parent [Aib]PTH(1-14)” value came out at 12 fold, the EC50 came to 81 ± 65 nM and the maximum response (Emax) is 104 ± 7%.
Take `CC[C@H](C)[C@H](NC(=O)[C@H](CCC(=O)O)NC(=O)[C@H](C)NC(=O)[C@@H](NC(=O)[C@H](C)N)C(C)C)C(=O)N[C@H]1CCCCNC(=O)CC[C@@H](C(=O)N[C@@H](CCCCNC(=N)N)C(=O)N[C@@H](C)C(=O)N[C@@H](CCCCN)C(=O)N[C@@H](Cc2c[nH]c3ccccc23)C(N)=O)NC(=O)[C@H](Cc2c[nH]cn2)NC(=O)[C@H](CCSC)NC(=O)[C@H](CC(C)C)NC1=O` [[(Lys^6, Glu^10)lac.]PTH(1-14)] (H-AVAEIKLMHE[hArg]AKW-NH2; lactam 6-10): in test [1] (10 μM), the “capacity to stimulate cAMP formation at a single dose” value was “more active than its linear counterpart; also recorded: significantly (P<0.0001) greater than that elicited by the linear control”. The “potency relative to linear [Lys^6, Glu^10]PTH(1-14)” value in test [1] (dose-response analyses) is listed as “six-fold more potent”. In test [1], the Emax came out at 59 ± 3%.
On to `CC[C@H](C)[C@H](NC(=O)[C@H](CCC(=O)O)NC(=O)C(C)(C)NC(=O)[C@@H](NC(=O)C(C)(C)N)C(C)C)C(=O)N[C@@H](C)C(=O)N[C@@H](CC(C)C)C(=O)N[C@@H](CCSC)C(=O)N[C@@H](Cc1c[nH]cn1)C(=O)N[C@@H](CCC(N)=O)C(=O)N[C@@H](CCCCNC(=N)N)C(=O)N[C@@H](C)C(=O)N[C@@H](CCCCN)C(=O)N[C@@H](Cc1c[nH]c2ccccc12)C(N)=O` [[Aib^1,3, Ala^6]PTH(1-14)] (H-[Aib]V[Aib]EIALMHQ[hArg]AKW-NH2), for which, at P1R-DelNt, the “potency weaker than parent [Aib]PTH(1-14)” value is on record as 22 fold and the maximal effect (Emax) was 101 ± 4%.
As for `CC[C@H](C)[C@H](NC(=O)[C@H](CCC(=O)O)NC(=O)[C@H](C)NC(=O)[C@@H](NC(=O)[C@H](C)N)C(C)C)C(=O)N[C@@H](CCCCN)C(=O)N[C@@H](CC(C)C)C(=O)N[C@@H](CCSC)C(=O)N[C@@H](Cc1c[nH]cn1)C(=O)N[C@@H](CCC(=O)O)C(=O)N[C@@H](CCCCNC(=N)N)C(=O)N[C@@H](C)C(=O)N[C@@H](CCCCN)C(=O)N[C@@H](Cc1c[nH]c2ccccc12)C(N)=O` [[Lys^6, Glu^10]PTH(1-14)] (H-AVAEIKLMHE[hArg]AKW-NH2), the Emax in test [1] came out at 37 ± 5%.
`CC[C@H](C)[C@H](NC(=O)[C@H](CCC(=O)O)NC(=O)C(C)(C)NC(=O)[C@@H](NC(=O)C(C)(C)N)C(C)C)C(=O)N[C@@H](CCC(N)=O)C(=O)N[C@@H](CC(C)C)C(=O)N[C@@H](CCSC)C(=O)N[C@@H](Cc1c[nH]cn1)C(=O)N[C@@H](CCC(N)=O)C(=O)N[C@@H](CCCCNC(=N)N)C(=O)N[C@@H](C)C(=O)N[C@@H](CCCCN)C(=O)N[C@@H](Cc1c[nH]c2ccccc12)C(N)=O` [[Aib]PTH(1-14), AibValAibGluIleGlnLeuMetHisGlnHarAlaLysTrp-amide] (H-[Aib]V[Aib]EIQLMHQ[hArg]AKW-NH2): at P1R-DelNt, the “fold increase in cAMP formation/accumulation” value is given as 50 fold and the EC50 is 6.6 ± 1.1 nM.
On to `CC[C@H](C)[C@H](NC(=O)[C@H](CCC(=O)O)NC(=O)C(C)(C)NC(=O)[C@@H](NC(=O)C(C)(C)N)C(C)C)C(=O)N[C@@H](C)C(=O)N[C@@H](CC(C)C)C(=O)N[C@@H](CCSC)C(=O)N[C@@H](Cc1c[nH]cn1)C(=O)N[C@@H](C)C(=O)N[C@@H](CCCCNC(=N)N)C(=O)N[C@@H](C)C(=O)N[C@@H](CCCCN)C(=O)N[C@@H](Cc1c[nH]c2ccccc12)C(N)=O` [[Aib^1,3, Ala^6,10]PTH(1-14)] (H-[Aib]V[Aib]EIALMHA[hArg]AKW-NH2), for which, at P1R-DelNt, the “potency relative to [Aib^1,3, Ala^6]PTH(1-14)” value was “six-fold higher”; the 50% effective concentration (EC50) was found to be 24 ± 7 nM; the Emax amounted to 100 ± 3%.
